The first test has as its target T1, human MGL from HeLa cells (Homo sapiens, UniProt Q99685).
T1 construct: combining endogenously expressed MGL from HeLa cells with test compounds; endogenous in cells; host or cells: HeLa cells / cell homogenates
T1 sequence (Q99685 1-303): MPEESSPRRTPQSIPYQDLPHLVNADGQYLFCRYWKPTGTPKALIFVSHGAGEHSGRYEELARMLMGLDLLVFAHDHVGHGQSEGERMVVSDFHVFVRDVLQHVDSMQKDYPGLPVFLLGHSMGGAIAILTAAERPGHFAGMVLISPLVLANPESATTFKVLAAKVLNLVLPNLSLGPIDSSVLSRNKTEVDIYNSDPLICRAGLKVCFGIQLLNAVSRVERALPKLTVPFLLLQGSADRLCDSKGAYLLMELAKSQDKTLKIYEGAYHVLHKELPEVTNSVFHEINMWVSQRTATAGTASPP
As to the kind of experiment: In vitro MGL activity assay: [glycerol-1,3-3H]-oleyl glycerol cleavage by MGL from HeLa cells. It is filed as biochemical. The following applies: 300 nM [Glycerol-1,3-3H]-oleyl glycerol, one hour. The source says: MGL is the predominant hydrolase in HeLa cells/cell homogenates.
As a reminder, the IC50 is the midpoint of a concentration-inhibition curve. Consider `Cc1nn2ccccc2c1C(=O)N1CCc2c(nn(C)c2-c2cc(F)c(F)c(F)c2)[C@@H]1C` [Example 382, [(7S)-2,7-Dimethyl-3-(3,4,5-trifluorophenyl)-5,7-dihydro-4H-pyrazolo[3,4-c]pyridin-6-yl]-(2-methylpyrazolo[1,5-a]pyridin-3-yl)methanone], for which the IC50 stood at 4.26 nM.
`C[C@H]1c2nn(C)c(-c3ccnc(C(F)(F)F)c3)c2CCN1C(=O)c1ccc2ncccc2c1` [Example 523, [(7S)-2,7-Dimethyl-3-[2-(trifluoromethyl)-4-pyridyl]-5,7-dihydro-4H-pyrazolo[3,4-c]pyridin-6-yl]-(6-quinolyl)methanone] came in with an IC50 of 417 nM.
`C[C@H]1c2nn(C)c(-c3cc(F)c(F)c(F)c3)c2CCN1C(=O)c1nccc2ncncc12` [Example 484, [(7S)-2,7-Dimethyl-3-(3,4,5-trifluorophenyl)-5,7-dihydro-4H-pyrazolo[3,4-c]pyridin-6-yl]-pyrido[4,3-d]pyrimidin-5-yl-methanone]: the half-maximal inhibitory concentration (IC50) worked out at 62.2 nM.
`C[C@H]1c2nn(C)c(-c3cc(F)c(F)c(F)c3)c2CCN1C(=O)c1nccc2cn(C)nc12` [Example 429, [(7S)-2,7-Dimethyl-3-(3,4,5-trifluorophenyl)-5,7-dihydro-4H-pyrazolo[3,4-c]pyridin-6-yl]-(2-methylpyrazolo[3,4-c]pyridin-7-yl)methanone] returned a concentration for half-maximal inhibition (IC50) of 412 nM.
Regarding `COc1ccc(-c2c3c(nn2C)[C@H](C)N(C(=O)c2ccc4ncccc4c2)CC3)cn1` [Example 525, [(7S)-3-(6-Methoxy-3-pyridyl)-2,7-dimethyl-5,7-dihydro-4H-pyrazolo[3,4-c]pyridin-6-yl]-(6-quinolyl)methanone], the IC50 amounted to 602 nM.
The molecule `Cc1cc(F)cc(-c2c3c(nn2C)[C@H](C)N(C(=O)c2c(C)nc4ccccn24)CC3)c1` [Example 396, [(7S)-3-(3-Fluoro-5-methyl-phenyl)-2,7-dimethyl-5,7-dihydro-4H-pyrazolo[3,4-c]pyridin-6-yl]-(2-methylimidazo[1,2-a]pyridin-3-yl)methanone] displayed an IC50 of 5.04 nM.
Molecule `Cc1nc2ccccn2c1C(=O)N1CCc2c(nn(C)c2-c2cc(F)c(F)c(F)c2)[C@@H]1C` [Example 397, [(7S)-2,7-Dimethyl-3-(3,4,5-trifluorophenyl)-5,7-dihydro-4H-pyrazolo[3,4-c]pyridin-6-yl]-(2-methylimidazo[1,2-a]pyridin-3-yl)methanone] came in with an IC50 of 10.3 nM.
In turn, `C[C@H]1c2nn(C)c(-c3cc(F)cc4ccoc34)c2CCN1C(=O)c1ccc2ncccc2c1` [Example 536, [(7S)-3-(5-Fluorobenzofuran-7-yl)-2,7-dimethyl-5,7-dihydro-4H-pyrazolo[3,4-c]pyridin-6-yl]-(6-quinolyl)methanone] displayed an IC50 of 20 nM.
As for `C[C@H]1c2nn(C)c(-c3cc(F)c(F)c(F)c3)c2CCN1C(=O)c1cc2[nH]ccc2cc1F` [Example 353, [(7S)-2,7-Dimethyl-3-(3,4,5-trifluorophenyl)-5,7-dihydro-4H-pyrazolo[3,4-c]pyridin-6-yl]-(5-fluoro-1H-indol-6-yl)methanone], the IC50 was 48.5 nM.
Same read-out and setting: the same measure for `C[C@H]1c2nn(C)c(-c3cc(F)c(F)c(F)c3)c2CCN1C(=O)c1ccc2nccc(Br)c2c1` [Example 547, (4-Bromo-6-quinolyl)-[(7S)-2,7-dimethyl-3-(3,4,5-trifluorophenyl)-5,7-dihydro-4H-pyrazolo[3,4-c]pyridin-6-yl]methanone]: 5.62 nM; for `Cc1nc2ccc(C3CC3)cn2c1C(=O)N1CCc2c(nn(C)c2-c2cc(F)c(F)c(F)c2)[C@@H]1C` [Example 618]: 18.2 nM.
Take `C[C@H]1c2nn(C)c(-c3cccc(C(F)(F)F)c3)c2CCN1C(=O)c1ccc2ncccc2c1` [Example 468, [(7S)-2,7-Dimethyl-3-[3-(trifluoromethyl)phenyl]-5,7-dihydro-4H-pyrazolo[3,4-c]pyridin-6-yl]-(6-quinolyl)methanone]: the concentration for half-maximal inhibition (IC50) is 50.7 nM. This IC50 is about 2.8-fold higher than that of the molecule before.
Molecule `Cc1nc2c(C)ncc(C)n2c1C(=O)N1CCc2c(nn(C)c2-c2cc(F)c(F)c(F)c2)[C@@H]1C` [Example 459, [(7S)-2,7-Dimethyl-3-(3,4,5-trifluorophenyl)-5,7-dihydro-4H-pyrazolo[3,4-c]pyridin-6-yl]-(2,5,8-trimethylimidazo[1,2-a]pyrazin-3-yl)methanone] registered a half-maximal inhibitory concentration (IC50) of 312 nM.
Same read-out and setting: for `COc1cc(-c2c3c(nn2C)[C@H](C)N(C(=O)c2ccc4ncccc4c2)CC3)ccn1` [Example 526, [(7S)-3-(2-Methoxy-4-pyridyl)-2,7-dimethyl-5,7-dihydro-4H-pyrazolo[3,4-c]pyridin-6-yl]-(6-quinolyl)methanone] the value was 502 nM.
In turn, `C[C@H]1c2nn(C)c(-c3cc(F)c(F)c(F)c3)c2CCN1C(=O)c1ccc2cnccc2c1` [Example 544, [(7S)-2,7-Dimethyl-3-(3,4,5-trifluorophenyl)-5,7-dihydro-4H-pyrazolo[3,4-c]pyridin-6-yl]-(6-isoquinolyl)methanone] registered a 50% inhibitory concentration (IC50) of 10.2 nM.
Turning to `CCOc1ccc(-c2c3c(nn2C)[C@H](C)N(C(=O)c2ccc4ncccc4c2)CC3)cc1` [Example 497, [(7S)-3-(4-Ethoxyphenyl)-2,7-dimethyl-5,7-dihydro-4H-pyrazolo[3,4-c]pyridin-6-yl]-(6-quinolyl)methanone], the IC50 stood at 313 nM.
On to `C[C@H]1c2nn(C)c(-c3ccc4c(c3)OCO4)c2CCN1C(=O)c1ccc2ncccc2c1` [Example 540, [(7S)-3-(1,3-Benzodioxol-5-yl)-2,7-dimethyl-5,7-dihydro-4H-pyrazolo[3,4-c]pyridin-6-yl]-(6-quinolyl)methanone], for which half-maximal inhibition (IC50) was put at 133 nM.

Staying with this test, now noted: 300 nM [Glycerol-1,3-3H]-oleyl glycerol, one hour incubation.
`Cn1nc2c(c1-c1cccc(OC(F)F)c1)CCN(C(=O)c1ccc3ncccc3c1)C2` [Example 98, (3-(3-(Difluoromethoxy)phenyl)-2-methyl-2,4,5,7-tetrahydro-6H-pyrazolo[3,4-c]pyridin-6-yl)(quinolin-6-yl)methanone]: the half-maximal inhibitory concentration (IC50) was determined as 973 nM.
Molecule `C[C@H]1c2nn(C)c(-c3cc(F)c(F)c(F)c3)c2CCN1C(=O)c1cnc2c(cnn2C)c1` [Example 231, (S)-(2,7-Dimethyl-3-(3,4,5-trifluorophenyl)-2,4,5,7-tetrahydro-6H-pyrazolo[3,4-c]pyridin-6-yl)(1-methyl-1H-pyrazolo[3,4-b]pyridin-5-yl)methanone] yielded an IC50 of 124 nM.
On the same count and under the same terms, for `COc1cccc(OC)c1C(=O)N1CCc2c(nn(C)c2-c2ccccc2)C1` [Example 10, (2,6-Dimethoxyphenyl)(2-methyl-3-phenyl-2,4,5,7-tetrahydro-6H-pyrazolo[3,4-c]pyridin-6-yl)methanone] the value was over 10000 nM.
`Cn1nc2c(c1-c1ccccc1)CCN(C(=O)c1ccc3sccc3c1)C2` [Example 39, Benzo[b]thiophen-5-yl(2-methyl-3-phenyl-2,4,5,7-tetrahydro-6H-pyrazolo[3,4-c]pyridin-6-yl)methanone]: 136 nM corresponded to half-maximal inhibition (IC50). This counts as sub-micromolar.
Still for that read-out and setting: for `C[C@H]1c2nn(C)c(-c3cccc(Cl)c3)c2CCN1C(=O)c1cc(CO)ccn1` [Example 119, (S)-(3-(3-Chlorophenyl)-2,7-dimethyl-2,4,5,7-tetrahydro-6H-pyrazolo[3,4-c]pyridin-6-yl)(4-(hydroxymethyl)pyridin-2-yl)methanone] the value was 398 nM.
For the molecule `C[C@H]1c2nn(C)c(-c3cccc(Cl)c3)c2CCN1C(=O)c1ncn(-c2ccccc2)n1` [Example 117, (S)-(3-(3-Chlorophenyl)-2,7-dimethyl-2,4,5,7-tetrahydro-6H-pyrazolo[3,4-c]pyridin-6-yl)(1-phenyl-1H-1,2,4-triazol-3-yl)methanone], the 50% inhibitory concentration (IC50) came to 56.7 nM.
Molecule `C[C@H]1c2nn(C)c(-c3cc(F)c(F)c(F)c3)c2CCN1C(=O)c1cn(C)c2cnccc12` [Example 221, (S)-(2,7-Dimethyl-3-(3,4,5-trifluorophenyl)-2,4,5,7-tetrahydro-6H-pyrazolo[3,4-c]pyridin-6-yl)(1-methyl-1H-pyrrolo[2,3-c]pyridin-3-yl)methanone] had a 50% inhibitory concentration (IC50) of 78.9 nM.
Still for that read-out and setting: the same measure for `C[C@H]1c2nn(C)c(-c3cc(F)c(F)c(F)c3)c2CCN1C(=O)c1ccc2ncccc2n1` [Example 244, (S)-(2,7-Dimethyl-3-(3,4,5-trifluorophenyl)-2,4,5,7-tetrahydro-6H-pyrazolo[3,4-c]pyridin-6-yl)(1,5-naphthyridin-2-yl)methanone]: 14.1 nM.
`C[C@H]1c2nn(C)c(-c3cc(F)c(F)c(F)c3)c2CCN1C(=O)c1cccc2c1ccn2C` [Example 207, (S)-(2,7-dimethyl-3-(3,4,5-trifluorophenyl)-2,4,5,7-tetrahydro-6H-pyrazolo[3,4-c]pyridin-6-yl)(1-methyl-1H-indol-4-yl)methanone] returned an IC50 of 0.22 nM.
Molecule `Cn1nc2c(c1C1CC1)CCN(C(=O)c1cccc3ccccc13)C2` [Example 3, (3-Cyclopropyl-2-methyl-2,4,5,7-tetrahydro-6H-pyrazolo[3,4-c]pyridin-6-yl)(naphthalen-1-yl)methanone] came in with an IC50 of 799 nM.
The molecule `Cn1nc2c(c1-c1ccccc1)CCN(C(=O)c1ccn3cncc3c1)C2` [Example 78, Imidazo[1,5-a]pyridin-7-yl(2-methyl-3-phenyl-2,4,5,7-tetrahydro-6H-pyrazolo[3,4-c]pyridin-6-yl)methanone] showed a concentration for half-maximal inhibition (IC50) of 2000 nM.
The molecule `Cn1nc2c(c1-c1ccccc1)CCN(C(=O)c1cccc3cc[nH]c13)C2` [Example 45, (1H-Indol-7-yl)(2-methyl-3-phenyl-2,4,5,7-tetrahydro-6H-pyrazolo[3,4-c]pyridin-6-yl)methanone] displayed an IC50 of 1460 nM.

These data come from patent US11820766B2, “Monoacylglycerol lipase modulators” (Janssen Pharmaceutica NV, priority 2018, dated 2023).
